Among the test systems are OVCAR-5; HOP-62; HCT-116; MCF7; SK-MEL-5; UO-31; EKVX; IGROV-1; RXF 393; SN12C; LOX IMVI; DU-145; HOP-92; HL-60; UACC-62; Hs-578T; OVCAR-3; KM12.
Holding throughout (experiment): NCI anticancer screen, dose series, 48 h

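Interpolation was linear, between the two tested concentrations surrounding the appropriate level; five concentrations were tested over 48 hours in 96-well plates. GI50: concentration for 50% inhibition of growth.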 The source made the active and inactive calls. Rule as the data show it: active = GI50 up to about 1.1 µM and inactive = higher. Some results are limits rather than exact numbers.

As to `CCCCCc1cccc(=O)o1`, the GI50 with OVCAR-5, with HOP-62, in the assay with HCT-116, in the assay on MCF7, with SK-MEL-5 and with UO-31 was > 100 µM (inactive) in each case. The GI50 with EKVX, in the assay on IGROV-1, in the assay on RXF 393, with SN12C, in the assay with LOX IMVI and in the assay on DU-145 was > 100 µM (inactive) throughout. The GI50 was 44.2 µM (inactive) in the assay with HOP-92; > 100 µM (inactive) in the assay with HL-60; > 100 µM (inactive) in the assay on UACC-62; > 100 µM (inactive) in the assay with Hs-578T; > 100 µM (inactive) in the assay with OVCAR-3; > 100 µM (inactive) in the assay with KM12.
As for `COC(CN(C(C)=O)C1CCC2(SCCS2)c2[nH]c3ccccc3c21)OC` (centres undefined), the GI50 in the assay with OVCAR-5, with HOP-62, in the assay on HCT-116, in the assay with MCF7, with SK-MEL-5 and with UO-31 was > 100 µM (inactive) each time. For the same molecule, the GI50 was 72.1 µM (inactive) in the assay on EKVX; > 100 µM (inactive) in the assay with IGROV-1; 38.6 µM (inactive) in the assay with RXF 393; > 100 µM (inactive) in the assay with SN12C; 0.0422 µM (active) with LOX IMVI; > 100 µM (inactive) in the assay with DU-145. The GI50 with HOP-92 is > 100 µM (inactive); in the assay with HL-60, 89.9 µM (inactive); with Hs-578T it was 54.6 µM (inactive); in the assay with OVCAR-3 it was > 100 µM (inactive); with KM12, > 100 µM (inactive).
As for `Cc1ccc2c(O)cc(-c3cc(C)sc3C)nc2n1`, the GI50 with OVCAR-5 is 11.6 µM (inactive); in the assay on HOP-62 it was 6.07 µM (inactive); in the assay with HCT-116, 3.84 µM (inactive); in the assay on MCF7, 2.18 µM (inactive); with SK-MEL-5 it was 0.708 µM (active); with UO-31, 4.29 µM (inactive). Further, the GI50 is 10.8 µM (inactive) in the assay with EKVX; 3.36 µM (inactive) with IGROV-1; 2.81 µM (inactive) with RXF 393; 6.44 µM (inactive) in the assay with SN12C; 5.08 µM (inactive) in the assay with LOX IMVI; 3.99 µM (inactive) in the assay with DU-145. Further, the GI50 in the assay with HOP-92 is 17.9 µM (inactive); in the assay with HL-60, 1.53 µM (inactive); with UACC-62, 4.88 µM (inactive); in the assay on Hs-578T it was 2.47 µM (inactive); with OVCAR-3 it was 3.5 µM (inactive); in the assay on KM12 it was 3.3 µM (inactive).
With `Cc1c(OCc2ccccc2)c(=O)ccn1CCc1c[nH]c2ccccc12`, the GI50 in the assay on OVCAR-5 was 65.9 µM (inactive); in the assay on HOP-62 it was > 100 µM (inactive); in the assay on HCT-116, 38.3 µM (inactive); with MCF7, 18.5 µM (inactive); in the assay on SK-MEL-5 it was 18.3 µM (inactive); in the assay with UO-31 it was 43.1 µM (inactive). Further, the GI50 in the assay with EKVX is 41.3 µM (inactive); in the assay with IGROV-1 it was 26.6 µM (inactive); in the assay on SN12C it was 45.6 µM (inactive); with LOX IMVI it was 44.6 µM (inactive); in the assay on DU-145, 25.9 µM (inactive); with HOP-92 it was 14.4 µM (inactive). The GI50 in the assay on UACC-62 was 27.4 µM (inactive); in the assay with Hs-578T it was 27.2 µM (inactive); in the assay with OVCAR-3 it was 18.5 µM (inactive); in the assay with KM12, 33.7 µM (inactive).
With `COP(=O)(OC)[C@H](O)[C@H]1C[C@@H]1c1ccccc1`, the GI50 in the assay with OVCAR-5, in the assay on HOP-62, in the assay with MCF7, in the assay on SK-MEL-5, with UO-31 and with EKVX was > 100 µM (inactive) throughout. Further, the GI50 in the assay with IGROV-1 was > 100 µM (inactive); with RXF 393 it was > 100 µM (inactive); in the assay on LOX IMVI it was > 100 µM (inactive); in the assay on DU-145 it was > 100 µM (inactive); in the assay with HOP-92, 17.4 µM (inactive); in the assay on HL-60, > 100 µM (inactive). Besides, the GI50 in the assay with UACC-62 is > 100 µM (inactive); with Hs-578T, 18.9 µM (inactive); in the assay on OVCAR-3, > 100 µM (inactive); in the assay on KM12, > 100 µM (inactive).
Consider `O=P1(N2CCOCC2)OCCO1`, for which the GI50 with OVCAR-5, with HCT-116, in the assay on MCF7, in the assay with SK-MEL-5, with UO-31 and in the assay with EKVX was > 100 µM (inactive) throughout. Further, the GI50 in the assay on IGROV-1, with RXF 393, in the assay with SN12C, with LOX IMVI, in the assay with DU-145 and with HOP-92 was > 100 µM (inactive) throughout. For the same molecule, the GI50 in the assay with HL-60, with UACC-62, in the assay with Hs-578T and in the assay with KM12 was > 100 µM (inactive) throughout.
With `COC(=O)c1ccc(NCC2=C(Br)C(=O)C=CC2=O)cc1Cl`, the GI50 was 21.8 µM (inactive) with OVCAR-5; 18 µM (inactive) in the assay on HCT-116; 17 µM (inactive) in the assay on MCF7; 20.1 µM (inactive) with SK-MEL-5; 16.4 µM (inactive) in the assay with UO-31; 14.1 µM (inactive) in the assay on EKVX. In addition, the GI50 is 15.5 µM (inactive) in the assay on IGROV-1; 16.5 µM (inactive) in the assay with SN12C; 14.9 µM (inactive) in the assay on LOX IMVI; 22.8 µM (inactive) with DU-145; 15.6 µM (inactive) with HOP-92; 3.68 µM (inactive) with HL-60. Besides, the GI50 was 18.8 µM (inactive) in the assay on UACC-62, 21.9 µM (inactive) in the assay with Hs-578T, 13.9 µM (inactive) in the assay with OVCAR-3 and 34.5 µM (inactive) in the assay on KM12.
On to `CCOC(=O)C[C@@H]1C2(C=C[C@@]13CO3)OCC(C)(C)CO2`, for which the GI50 with OVCAR-5, in the assay with HOP-62, in the assay on HCT-116, in the assay with MCF7, in the assay with SK-MEL-5 and in the assay with UO-31 was > 100 µM (inactive) throughout. In addition, the GI50 with EKVX, in the assay on IGROV-1, in the assay with RXF 393, in the assay on SN12C, in the assay with LOX IMVI and in the assay on DU-145 was > 100 µM (inactive) each time. Besides, the GI50 in the assay with HOP-92, with HL-60, with UACC-62, in the assay with Hs-578T and in the assay with OVCAR-3 was > 100 µM (inactive) throughout.
Turning to `CCSc1nc(N)c2c(-c3ccc(OC)c(OC)c3)c3c(nc2n1)CCCC3`, the GI50 in the assay with OVCAR-5, with HOP-62, with HCT-116, with MCF7, in the assay on SK-MEL-5 and with UO-31 was > 100 µM (inactive) in each case. The GI50 in the assay with EKVX, with IGROV-1, in the assay on RXF 393, with SN12C, in the assay with LOX IMVI and in the assay on DU-145 was > 100 µM (inactive) in each case. In addition, the GI50 in the assay on HL-60, with UACC-62, in the assay on Hs-578T, in the assay on OVCAR-3 and in the assay on KM12 was > 100 µM (inactive) each time.
Consider `CCP(=O)(CC)C(Cl)Cl`, for which the GI50 in the assay with OVCAR-5, in the assay with HOP-62, with HCT-116, in the assay on MCF7, in the assay with SK-MEL-5 and in the assay with UO-31 was > 100 µM (inactive) throughout. For the same molecule, the GI50 in the assay on IGROV-1, in the assay with SN12C, in the assay on LOX IMVI, with DU-145, in the assay on HOP-92 and with HL-60 was > 100 µM (inactive) throughout. In addition, the GI50 in the assay on Hs-578T and with OVCAR-3 was > 100 µM (inactive) in each case.
As to `COC(=O)C1=C(O)C(C(=O)OC)[C@]2(O)[C@@H](C(=O)OC)[C@H]1C[C@@H](c1ccccc1)[C@@H]2C(=O)OC` (some centres undefined), the GI50 was 16 µM (inactive) in the assay on OVCAR-5; 20 µM (inactive) with HOP-62; 6.98 µM (inactive) with HCT-116; 5.93 µM (inactive) with MCF7; 12.2 µM (inactive) in the assay on UO-31; 17.5 µM (inactive) with EKVX. The GI50 is 5.08 µM (inactive) with RXF 393; 15.7 µM (inactive) in the assay on SN12C; 15.4 µM (inactive) with LOX IMVI; 11.9 µM (inactive) with DU-145; 19.6 µM (inactive) with HL-60; 11.9 µM (inactive) with UACC-62. Further, the GI50 with Hs-578T is 17.2 µM (inactive); in the assay on OVCAR-3 it was 13.8 µM (inactive); in the assay with KM12 it was 11.7 µM (inactive).
With `COP(=O)(OC)C(Cc1cn(C(C)=O)c2ccccc12)C(=O)O` (centres undefined), the GI50 in the assay with OVCAR-5 was > 100 µM (inactive); with HOP-62 it was > 100 µM (inactive); with HCT-116, > 100 µM (inactive); with MCF7 it was 8.26 µM (inactive); with SK-MEL-5, > 100 µM (inactive); in the assay on UO-31, > 100 µM (inactive). Besides, the GI50 in the assay on IGROV-1 is > 100 µM (inactive); in the assay with SN12C, > 100 µM (inactive); with LOX IMVI, > 100 µM (inactive); with DU-145 it was > 100 µM (inactive); in the assay on HOP-92 it was 65.5 µM (inactive); with HL-60 it was > 100 µM (inactive). Moreover, the GI50 in the assay on Hs-578T and in the assay with OVCAR-3 was > 100 µM (inactive) throughout.
